# How the values were obtained:
# C2C12 muscle cells = test: Analysis of glucose absorption (2-deoxyglucose) in differentiated C2C12 muscle cells; format: cell-based; conditions: test materials 10 μM, times relative to control group
# Procedure, shortened: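 Differentiated C2C12 myotubes (6 days in 1% serum) held 3 h in KRB with 5 mM glucose, then given test material at 10 μM. After 30 min, 0.2 μCi 2-deoxyglucose added for 20 min; uptake measured by radioactive counting of NaOH lysates.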
# AMPK = test: Measurement of AMPK activity by Western blot in C2C12 cells; format: cell-based; parameters: key to AMPK activity (degree of phosphorylation of serine-79 and threonine-172): fold increase in threonine-172 phosphorylation; AMPK activity (degree of phosphorylation of serine-79): unit not given here; conditions: 10 μM for 50 minutes; for AMPK activity (degree of phosphorylation of serine-79 and threonine-172): no superscript: Western blot of serine-79 and threonine-172 phosphorylation; for AMPK activity (class: degree of phosphorylation of threonine-172): strong/mild/weak; for AMPK activity (degree of phosphorylation of serine-79): footnote a: Western blot of serine-79 phosphorylation
# Procedure, shortened: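 Differentiated C2C12 cells were exposed to test material at 10 μM for 50 minutes, then lysed. AMPK activity was taken from Western blots of Thr-172 phosphorylation and acetyl CoA carboxylase Ser-79 phosphorylation, with ERK as loading reference. Thr-172 rise was graded strong (≥3-fold), mild (1-3-fold) or weak (<1-fold).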
Compound,Glucose absorption (C2C12 muscle cells),AMPK activity (degree of phosphorylation of serine-79 and threonine-172) (AMPK),AMPK activity (class: degree of phosphorylation of threonine-172) (AMPK),AMPK activity (degree of phosphorylation of serine-79) (AMPK)
"Fc1ccc(CCNc2nc(-c3ccccc3)nc3ccccc23)cc1F [Compound 128, [2-(3,4-Difluorophenyl)-ethyl]-(2-phenylquinazolino-4-yl)-amine]",2.3,1.7,strong (“strong” means that the degree of phosphorylation of threonine-172 increased by 3 times or more),
"CC(C)c1nc(NCc2cccc(F)c2)c2ccccc2n1 [Compound 183, (3-Fluorobenzyl)-(2-isopropylquinazolino-4-yl)-amine]",3.3,2.6,strong (“strong” means that the degree of phosphorylation of threonine-172 increased by 3 times or more),
"CCSc1nc(NCc2ccccc2)c2ccccc2n1 [Compound 22, Benzyl-(2-Ethylsulfanylquinazolino-4-yl)-amine]",2.6,,strong (“strong” means that the degree of phosphorylation of threonine-172 increased by 3 times or more),
"CCSc1nc(NCCCCc2ccccc2)c2ccccc2n1 [Compound 30, (2-Ethylsulfanylquinazolino-4-yl)-(4-phenylbutyl)-amine]",1.8,,mild (“mild” means that the degree of phosphorylation of threonine-172 increased by 1 to 3 times),
"c1ccc(CCNc2nc(-c3ccccn3)nc3ccccc23)cc1 [Compound 227, Phenethyl-(2-pyridino-2-ylquinazolino-4-yl)-amine]",1.6,4.9,strong (“strong” means that the degree of phosphorylation of threonine-172 increased by 3 times or more),
"COc1cc(CNc2nc(C(C)C)nc3ccccc23)cc(OC)c1OC [Compound 325, (2-Isopropylquinazolino-4-yl)-(3,4,5-trimethoxybenzyl)-amine]",1.2,2.2,,
"CC(C)(C)c1nc(NCCCCc2ccccc2)c2ccccc2n1 [Compound 192, (2-tert-Butylquinazolino-4-yl)-(4-phenylbutyl)-amine]",2.1,6.5,strong (“strong” means that the degree of phosphorylation of threonine-172 increased by 3 times or more),
"COc1ccc(OC)c(CNc2nc(C3CC3)nc3ccccc23)c1 [Compound 391, (2-Cyclopropylquinazolino-4-yl)-(2,5-dimethoxybenzyl)-amine]",1.2,7.1,,
"c1ccc(-c2nc(NCc3cccnc3)c3ccccc3n2)cc1 [Compound 111, (2-Phenylquinazolino-4-yl)-pyridino-3-ylmethylamine]",2.4,1.8,strong (“strong” means that the degree of phosphorylation of threonine-172 increased by 3 times or more),
"C1=C(CCNc2nc(-c3ccccc3)nc3ccccc23)CCCC1 [Compound 131, (2-Cyclohex-1-enylethyl)-(2-phenylquinazolino-4-yl)-amine]",2.3,1.8,strong (“strong” means that the degree of phosphorylation of threonine-172 increased by 3 times or more),
"CCSc1nc(NCc2cccc(C(F)(F)F)c2)c2ccccc2n1 [Compound 26, (2-Ethylsulfanylquinazolino-4-yl)-(3-trifluoromethylbenzyl)-amine]",1.7,,mild (“mild” means that the degree of phosphorylation of threonine-172 increased by 1 to 3 times),
"Brc1cccc(CNc2nc(-c3ccccc3)nc3ccccc23)c1 [Compound 153, (3-Bromobenzyl)-(2-phenylquinazolino-4-yl)-amine]",2.4,1.3,mild (“mild” means that the degree of phosphorylation of threonine-172 increased by 1 to 3 times),
"CCSc1nc(NCc2cccc(OC)c2)c2ccccc2n1 [Compound 24, (2-Ethylsulfanylquinazolino-4-yl)-(3-methoxybenzyl)-amine]",2.8,,strong (“strong” means that the degree of phosphorylation of threonine-172 increased by 3 times or more),
"CCSc1nc(NCc2cccc3ccccc23)c2ccccc2n1 [Compound 35, (2-Ethylsulfanylquinazolino-4-yl)-naphthaleno-1-ylmethyl amine]",1.9,,strong (“strong” means that the degree of phosphorylation of threonine-172 increased by 3 times or more),
"CCCNc1nc(C(Cl)(Cl)Cl)nc2ccccc12 [Compound 7, Propyl-(2-trichloromethylquinazolino-4-yl)-amine]",1.5,,,4.4^a
"COc1ccc(OC)c(CNc2nc(C(C)c3ccccc3)nc3ccccc23)c1 (centres unmarked) [Compound 380, (2,5-Dimethoxybenzyl)-[2-(1-phenylethyl)-quinazolino-4-yl]-amine]",1.0,1.9,,
"COc1ccccc1CNc1ncnc2ccccc12 [Compound 404, (2-Methoxybenzyl)-quinazolino-4-ylamine]",2.1,1.9,,
"Cc1nc(NCc2cccc(F)c2)c2ccccc2n1 [Compound 171, (3-Fluorobenzyl)-(2-methylquinazolino-4-yl)-amine]",2.2,6.6,strong (“strong” means that the degree of phosphorylation of threonine-172 increased by 3 times or more),
"COc1cc(OC)c(CNc2ncnc3ccccc23)c(OC)c1 [Compound 414, Quinazolino-4-yl-(2,4,6-trimethoxybenzyl)-amine]",1.5,2.9,,
"c1ccc2c(NCc3ccc4c(c3)OCO4)nc(N3CCOCC3)nc2c1 [Compound 309, Benzo[1,3]dioxol-5-ylmethyl-(2-morpholino-4-ylquinazolino-4-yl)-amine]",0.8,1.3,,
"COc1cccc(CNc2nc(C(C)c3ccccc3)nc3ccccc23)c1OC (centres unmarked) [Compound 375, (2,3-Dimethoxybenzyl)-[2-(1-phenylethyl)-quinazolino-4-yl]-amine]",1.1,5.2,,
"ClC(Cl)(Cl)c1nc(NCCCCc2ccccc2)c2ccccc2n1 [Compound 6, (4-Phenylbutyl)-(2-trichloromethylquinazolino-4-yl)-amine]",1.4,,,4.7^a
"Cc1nc(NCCc2cccc(F)c2)c2ccccc2n1 [Compound 172, [2-(3-Fluorophenyl)-ethyl]-(2-methylquinazolino-4-yl)-amine]",2.6,4.4,strong (“strong” means that the degree of phosphorylation of threonine-172 increased by 3 times or more),
"COc1cccc(CNc2nc(C(C)C)nc3ccccc23)c1OC [Compound 322, (2,3-Dimethoxybenzyl)-(2-isopropylquinazolino-4-yl)-amine]",1.4,1.9,,
"Clc1ccc(CNc2nc(-c3ccccc3)nc3ccccc23)c(Cl)c1 [Compound 108, (2,4-Dichlorobenzyl)-(2-phenylquinazolino-4-yl)-amine]",2.2,2.2,strong (“strong” means that the degree of phosphorylation of threonine-172 increased by 3 times or more),
"CCCc1nc(NCc2ccc(OC)cc2)c2ccccc2n1 [Compound 395, (4-Methoxybenzyl)-(2-propylquinazolino-4-yl)-amine]",1.2,7.0,,
"Clc1cccc(CNc2nc(-c3ccccc3)nc3ccccc23)c1Cl [Compound 115, (2,3-Dichlorobenzyl)-(2-phenylquinazolino-4-yl)-amine]",2.3,2.3,strong (“strong” means that the degree of phosphorylation of threonine-172 increased by 3 times or more),

# — patent US20080207614A1, “QUINAZOLINE DERIVATIVES FOR THE TREATMENT AND PREVENTION OF DIABETES AND OBESITY” (SK CHEMICALS CO., LTD., priority 2004, published 2008)
